For assay [1], the target named is T1, Protein deacetylase HDAC6 (Homo sapiens, UniProt Q9UBN7).
T1 sequence (Q9UBN7 whole entry): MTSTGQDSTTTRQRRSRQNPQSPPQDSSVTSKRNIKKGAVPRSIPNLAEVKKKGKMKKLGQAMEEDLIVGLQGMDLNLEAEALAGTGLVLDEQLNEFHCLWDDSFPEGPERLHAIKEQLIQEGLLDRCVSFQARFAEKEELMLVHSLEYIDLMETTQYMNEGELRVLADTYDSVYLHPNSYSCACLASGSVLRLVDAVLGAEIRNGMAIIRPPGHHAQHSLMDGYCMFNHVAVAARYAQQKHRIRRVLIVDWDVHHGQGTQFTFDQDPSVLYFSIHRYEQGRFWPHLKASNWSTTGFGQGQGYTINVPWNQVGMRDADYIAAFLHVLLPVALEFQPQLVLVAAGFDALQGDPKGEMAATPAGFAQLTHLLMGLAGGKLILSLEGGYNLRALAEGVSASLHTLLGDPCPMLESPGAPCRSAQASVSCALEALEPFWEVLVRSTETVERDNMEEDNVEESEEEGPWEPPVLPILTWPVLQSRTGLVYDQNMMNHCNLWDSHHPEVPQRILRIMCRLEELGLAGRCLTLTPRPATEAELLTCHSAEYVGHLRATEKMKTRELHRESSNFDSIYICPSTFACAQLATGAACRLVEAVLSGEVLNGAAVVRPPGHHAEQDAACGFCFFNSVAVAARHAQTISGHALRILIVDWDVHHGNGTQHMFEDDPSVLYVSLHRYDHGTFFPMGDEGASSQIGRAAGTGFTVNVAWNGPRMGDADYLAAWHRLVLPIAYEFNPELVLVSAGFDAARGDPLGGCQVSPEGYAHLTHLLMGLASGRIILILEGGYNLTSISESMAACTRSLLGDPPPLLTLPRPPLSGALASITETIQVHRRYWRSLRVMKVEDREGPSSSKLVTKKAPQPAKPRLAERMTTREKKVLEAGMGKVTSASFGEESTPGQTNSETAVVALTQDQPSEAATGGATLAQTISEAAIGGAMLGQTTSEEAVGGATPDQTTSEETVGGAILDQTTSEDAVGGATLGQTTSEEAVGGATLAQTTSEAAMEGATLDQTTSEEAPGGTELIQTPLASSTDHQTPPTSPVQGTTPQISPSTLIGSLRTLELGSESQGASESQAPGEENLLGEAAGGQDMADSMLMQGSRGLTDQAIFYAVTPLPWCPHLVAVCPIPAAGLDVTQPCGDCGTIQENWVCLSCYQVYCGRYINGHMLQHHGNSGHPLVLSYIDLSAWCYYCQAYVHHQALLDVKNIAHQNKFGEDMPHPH
The experiment in a line: Inhibition of human HDAC6.

Another assay concerns NCI-H460. Nature of the assay: Cytotoxicity against human NCI-H460 cells after 48 hrs by SRB assay. It counts as functional, cell-based. As to conditions: NCI-H460, 48 h.
In a further assay the target is T2, Histone deacetylase 8 (Homo sapiens, UniProt Q9BY41).
T2 sequence (Q9BY41 whole entry): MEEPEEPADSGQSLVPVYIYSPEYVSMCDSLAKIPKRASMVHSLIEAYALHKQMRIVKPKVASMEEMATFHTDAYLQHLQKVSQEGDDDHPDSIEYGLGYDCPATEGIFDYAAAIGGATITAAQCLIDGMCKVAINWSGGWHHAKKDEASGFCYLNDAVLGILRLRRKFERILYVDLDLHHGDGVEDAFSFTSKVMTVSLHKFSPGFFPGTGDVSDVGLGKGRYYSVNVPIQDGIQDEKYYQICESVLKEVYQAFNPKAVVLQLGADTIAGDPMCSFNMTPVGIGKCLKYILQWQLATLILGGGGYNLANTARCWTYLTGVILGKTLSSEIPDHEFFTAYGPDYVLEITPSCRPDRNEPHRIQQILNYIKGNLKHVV
Nature of the assay: Inhibition of human HDAC8.

For another assay, the system named is NB-4. Nature of the assay: Cytotoxicity against human NB4 cells after 48 hrs by SRB assay. It counts as functional, cell-based. As to conditions: NB-4, 48 h. (In general: The SRB assay estimates cell density from bound dye.)
A further assay concerns the target Histone deacetylase 1 (Homo sapiens, UniProt Q13547).
In the next assay the test system is HCT-116. Nature of the assay: Cytotoxicity against human HCT116 cells after 48 hrs by SRB assay. It counts as functional, cell-based. The settings on record: HCT-116, 48 h.
The target of another assay is Histone deacetylase 3 (Homo sapiens, UniProt O15379). The experiment in a line: Inhibition of human HDAC3.
Histone deacetylase 3, sequence (O15379 whole entry): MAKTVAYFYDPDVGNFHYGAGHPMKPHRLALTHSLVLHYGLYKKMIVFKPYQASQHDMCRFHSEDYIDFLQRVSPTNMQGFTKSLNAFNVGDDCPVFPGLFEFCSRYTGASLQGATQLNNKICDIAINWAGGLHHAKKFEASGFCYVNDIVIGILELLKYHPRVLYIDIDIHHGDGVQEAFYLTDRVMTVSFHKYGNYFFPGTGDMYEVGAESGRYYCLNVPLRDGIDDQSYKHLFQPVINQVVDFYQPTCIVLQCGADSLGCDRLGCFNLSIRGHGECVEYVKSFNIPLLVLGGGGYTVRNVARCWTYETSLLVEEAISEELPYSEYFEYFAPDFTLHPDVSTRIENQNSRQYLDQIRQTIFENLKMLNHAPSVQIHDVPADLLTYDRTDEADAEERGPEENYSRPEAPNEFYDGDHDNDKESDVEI
For a further assay, the target named is Histone deacetylase 5 (Homo sapiens, UniProt Q9UQL6). Nature of the assay: Inhibition of human HDAC5.
Histone deacetylase 5, sequence (Q9UQL6 whole entry): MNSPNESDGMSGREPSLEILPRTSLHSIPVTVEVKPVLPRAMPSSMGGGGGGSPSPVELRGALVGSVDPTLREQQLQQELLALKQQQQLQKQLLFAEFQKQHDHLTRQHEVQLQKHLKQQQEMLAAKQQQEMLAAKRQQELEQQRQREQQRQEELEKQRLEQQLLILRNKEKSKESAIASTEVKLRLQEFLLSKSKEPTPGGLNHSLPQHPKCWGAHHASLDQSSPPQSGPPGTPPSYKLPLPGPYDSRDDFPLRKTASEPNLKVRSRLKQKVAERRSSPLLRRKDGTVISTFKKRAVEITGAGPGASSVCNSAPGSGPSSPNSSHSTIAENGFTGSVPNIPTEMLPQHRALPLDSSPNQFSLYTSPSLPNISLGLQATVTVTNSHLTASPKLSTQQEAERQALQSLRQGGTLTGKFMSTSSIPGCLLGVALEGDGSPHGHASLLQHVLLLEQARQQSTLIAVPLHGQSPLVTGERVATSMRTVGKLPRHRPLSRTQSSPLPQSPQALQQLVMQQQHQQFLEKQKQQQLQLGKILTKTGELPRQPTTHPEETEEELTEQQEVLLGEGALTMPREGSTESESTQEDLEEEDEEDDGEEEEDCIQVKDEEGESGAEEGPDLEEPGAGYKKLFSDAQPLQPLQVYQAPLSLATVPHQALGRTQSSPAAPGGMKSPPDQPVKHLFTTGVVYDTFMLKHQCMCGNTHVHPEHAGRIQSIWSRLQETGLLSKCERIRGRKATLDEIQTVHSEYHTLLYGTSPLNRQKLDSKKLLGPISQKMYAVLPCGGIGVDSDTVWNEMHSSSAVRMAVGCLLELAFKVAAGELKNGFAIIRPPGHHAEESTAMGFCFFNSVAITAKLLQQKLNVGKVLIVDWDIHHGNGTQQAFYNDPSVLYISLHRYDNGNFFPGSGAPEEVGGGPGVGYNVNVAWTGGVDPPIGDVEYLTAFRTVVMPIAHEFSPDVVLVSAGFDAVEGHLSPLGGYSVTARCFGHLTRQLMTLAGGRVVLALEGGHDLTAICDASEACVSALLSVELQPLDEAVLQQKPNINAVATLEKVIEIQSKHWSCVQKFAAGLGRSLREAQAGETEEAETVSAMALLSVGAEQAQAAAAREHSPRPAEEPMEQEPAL
The target in another assay is T3, Histone deacetylase 11 (Homo sapiens, UniProt Q96DB2).
T3 sequence (Q96DB2 whole entry): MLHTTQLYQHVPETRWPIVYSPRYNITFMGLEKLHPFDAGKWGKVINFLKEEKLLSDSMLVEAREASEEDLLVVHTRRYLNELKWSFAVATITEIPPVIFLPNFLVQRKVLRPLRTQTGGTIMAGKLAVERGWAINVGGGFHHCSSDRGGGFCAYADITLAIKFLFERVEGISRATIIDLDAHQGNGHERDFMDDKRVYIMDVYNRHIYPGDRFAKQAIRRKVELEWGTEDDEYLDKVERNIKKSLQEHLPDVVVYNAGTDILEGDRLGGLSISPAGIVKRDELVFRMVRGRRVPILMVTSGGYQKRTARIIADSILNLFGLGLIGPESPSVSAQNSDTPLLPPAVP
The experiment in a line: Inhibition of human HDAC11.

For another assay, the target named is Histone deacetylase 9 (Homo sapiens, UniProt Q9UKV0). The experiment in a line: Inhibition of human HDAC9.
Histone deacetylase 9, sequence (Q9UKV0 whole entry): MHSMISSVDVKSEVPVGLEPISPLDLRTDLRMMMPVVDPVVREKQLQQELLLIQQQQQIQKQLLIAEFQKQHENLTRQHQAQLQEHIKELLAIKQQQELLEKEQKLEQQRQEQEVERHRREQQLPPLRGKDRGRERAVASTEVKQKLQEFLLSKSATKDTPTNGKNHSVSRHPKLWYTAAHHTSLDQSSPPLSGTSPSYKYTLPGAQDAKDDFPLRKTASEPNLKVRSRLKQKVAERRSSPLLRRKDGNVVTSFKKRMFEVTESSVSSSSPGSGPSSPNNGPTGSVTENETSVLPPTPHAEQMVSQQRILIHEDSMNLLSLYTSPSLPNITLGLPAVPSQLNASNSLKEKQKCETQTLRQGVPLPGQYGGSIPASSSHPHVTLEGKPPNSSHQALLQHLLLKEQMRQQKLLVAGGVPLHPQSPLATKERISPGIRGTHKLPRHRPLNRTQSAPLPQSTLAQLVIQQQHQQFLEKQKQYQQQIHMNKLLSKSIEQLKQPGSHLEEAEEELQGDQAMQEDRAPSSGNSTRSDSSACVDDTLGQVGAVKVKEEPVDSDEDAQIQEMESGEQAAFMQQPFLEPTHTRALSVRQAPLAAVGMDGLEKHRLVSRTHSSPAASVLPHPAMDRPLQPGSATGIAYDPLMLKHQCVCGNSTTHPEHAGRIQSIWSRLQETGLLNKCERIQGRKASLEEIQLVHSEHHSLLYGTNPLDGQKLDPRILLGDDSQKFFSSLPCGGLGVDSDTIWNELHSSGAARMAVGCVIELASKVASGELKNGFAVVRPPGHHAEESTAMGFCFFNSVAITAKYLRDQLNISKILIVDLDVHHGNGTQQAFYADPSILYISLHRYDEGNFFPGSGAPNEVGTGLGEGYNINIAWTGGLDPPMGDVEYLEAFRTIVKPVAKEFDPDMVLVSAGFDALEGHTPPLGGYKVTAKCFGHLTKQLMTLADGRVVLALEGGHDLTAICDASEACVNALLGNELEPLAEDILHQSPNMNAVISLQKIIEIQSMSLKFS
In another assay the target is Histone deacetylase 4 (Homo sapiens, UniProt P56524).
Histone deacetylase 4, sequence (P56524 whole entry): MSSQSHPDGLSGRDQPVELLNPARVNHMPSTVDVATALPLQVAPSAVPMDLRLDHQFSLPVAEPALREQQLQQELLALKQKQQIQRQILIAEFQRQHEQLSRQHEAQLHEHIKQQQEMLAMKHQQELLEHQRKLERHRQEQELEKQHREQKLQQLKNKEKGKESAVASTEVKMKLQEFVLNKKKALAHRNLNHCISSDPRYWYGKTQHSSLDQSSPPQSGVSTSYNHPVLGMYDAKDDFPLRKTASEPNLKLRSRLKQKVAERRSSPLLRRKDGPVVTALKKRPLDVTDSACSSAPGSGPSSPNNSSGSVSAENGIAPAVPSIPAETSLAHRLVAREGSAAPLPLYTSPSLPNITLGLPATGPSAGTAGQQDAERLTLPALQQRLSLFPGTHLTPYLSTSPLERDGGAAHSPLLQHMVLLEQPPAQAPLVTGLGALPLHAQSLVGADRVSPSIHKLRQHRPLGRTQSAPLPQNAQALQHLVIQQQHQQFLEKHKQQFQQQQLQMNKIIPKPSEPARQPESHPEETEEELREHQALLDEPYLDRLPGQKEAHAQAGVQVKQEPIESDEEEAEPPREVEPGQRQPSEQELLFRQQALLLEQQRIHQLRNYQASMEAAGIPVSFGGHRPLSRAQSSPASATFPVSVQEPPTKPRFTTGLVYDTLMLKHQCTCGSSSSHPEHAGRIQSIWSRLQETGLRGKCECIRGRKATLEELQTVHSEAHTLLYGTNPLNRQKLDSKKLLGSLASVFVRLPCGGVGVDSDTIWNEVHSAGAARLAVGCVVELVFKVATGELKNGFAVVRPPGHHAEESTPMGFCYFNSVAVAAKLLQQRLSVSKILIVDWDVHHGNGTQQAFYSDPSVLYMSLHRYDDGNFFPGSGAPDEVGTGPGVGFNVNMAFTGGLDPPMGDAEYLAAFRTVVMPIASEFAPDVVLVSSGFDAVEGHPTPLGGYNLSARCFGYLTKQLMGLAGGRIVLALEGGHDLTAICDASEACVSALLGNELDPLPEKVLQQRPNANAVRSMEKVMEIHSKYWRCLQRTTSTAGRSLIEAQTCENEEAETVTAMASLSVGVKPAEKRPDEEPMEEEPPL
In the next assay the target is Histone deacetylase 2 (Homo sapiens, UniProt Q92769). Nature of the assay: Inhibition of human HDAC2.
Histone deacetylase 2, sequence (Q92769 whole entry): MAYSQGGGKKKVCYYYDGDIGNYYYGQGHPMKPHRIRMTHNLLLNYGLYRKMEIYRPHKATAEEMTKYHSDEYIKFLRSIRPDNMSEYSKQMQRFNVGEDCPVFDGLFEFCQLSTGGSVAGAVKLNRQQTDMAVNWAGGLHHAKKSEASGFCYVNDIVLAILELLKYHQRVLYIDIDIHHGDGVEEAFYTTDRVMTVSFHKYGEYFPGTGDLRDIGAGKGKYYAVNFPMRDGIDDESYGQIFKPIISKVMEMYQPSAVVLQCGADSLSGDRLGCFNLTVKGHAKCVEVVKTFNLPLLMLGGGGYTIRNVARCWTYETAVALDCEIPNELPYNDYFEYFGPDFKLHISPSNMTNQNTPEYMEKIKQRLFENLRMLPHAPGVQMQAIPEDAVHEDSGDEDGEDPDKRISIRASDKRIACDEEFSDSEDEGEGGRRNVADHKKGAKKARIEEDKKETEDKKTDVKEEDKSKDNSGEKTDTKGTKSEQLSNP
The target of assay [2] is T4, Polyamine deacetylase HDAC10 (Homo sapiens, UniProt Q969S8).
T4 sequence (Q969S8 whole entry): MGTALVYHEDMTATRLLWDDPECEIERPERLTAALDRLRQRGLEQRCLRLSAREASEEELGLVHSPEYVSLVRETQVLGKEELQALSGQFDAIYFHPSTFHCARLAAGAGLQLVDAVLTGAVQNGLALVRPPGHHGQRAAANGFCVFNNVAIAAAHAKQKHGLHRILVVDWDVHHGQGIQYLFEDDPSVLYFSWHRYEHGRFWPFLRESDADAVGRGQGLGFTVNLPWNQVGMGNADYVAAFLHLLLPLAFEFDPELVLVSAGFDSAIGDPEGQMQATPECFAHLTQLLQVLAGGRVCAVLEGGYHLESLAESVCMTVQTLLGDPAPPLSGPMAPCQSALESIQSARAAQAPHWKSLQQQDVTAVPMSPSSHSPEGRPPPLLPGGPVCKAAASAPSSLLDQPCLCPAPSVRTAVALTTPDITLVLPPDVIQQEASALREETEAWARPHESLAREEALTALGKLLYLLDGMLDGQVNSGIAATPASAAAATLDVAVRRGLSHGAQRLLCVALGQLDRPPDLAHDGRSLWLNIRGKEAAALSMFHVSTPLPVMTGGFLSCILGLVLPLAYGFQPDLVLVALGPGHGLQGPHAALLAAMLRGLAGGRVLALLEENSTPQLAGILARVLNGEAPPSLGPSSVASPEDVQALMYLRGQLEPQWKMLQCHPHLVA
Nature of the assay: Inhibition of human HDAC10.

A further assay concerns the target T5, Histone deacetylase 7 (Homo sapiens, UniProt Q8WUI4).
T5 sequence (Q8WUI4 whole entry): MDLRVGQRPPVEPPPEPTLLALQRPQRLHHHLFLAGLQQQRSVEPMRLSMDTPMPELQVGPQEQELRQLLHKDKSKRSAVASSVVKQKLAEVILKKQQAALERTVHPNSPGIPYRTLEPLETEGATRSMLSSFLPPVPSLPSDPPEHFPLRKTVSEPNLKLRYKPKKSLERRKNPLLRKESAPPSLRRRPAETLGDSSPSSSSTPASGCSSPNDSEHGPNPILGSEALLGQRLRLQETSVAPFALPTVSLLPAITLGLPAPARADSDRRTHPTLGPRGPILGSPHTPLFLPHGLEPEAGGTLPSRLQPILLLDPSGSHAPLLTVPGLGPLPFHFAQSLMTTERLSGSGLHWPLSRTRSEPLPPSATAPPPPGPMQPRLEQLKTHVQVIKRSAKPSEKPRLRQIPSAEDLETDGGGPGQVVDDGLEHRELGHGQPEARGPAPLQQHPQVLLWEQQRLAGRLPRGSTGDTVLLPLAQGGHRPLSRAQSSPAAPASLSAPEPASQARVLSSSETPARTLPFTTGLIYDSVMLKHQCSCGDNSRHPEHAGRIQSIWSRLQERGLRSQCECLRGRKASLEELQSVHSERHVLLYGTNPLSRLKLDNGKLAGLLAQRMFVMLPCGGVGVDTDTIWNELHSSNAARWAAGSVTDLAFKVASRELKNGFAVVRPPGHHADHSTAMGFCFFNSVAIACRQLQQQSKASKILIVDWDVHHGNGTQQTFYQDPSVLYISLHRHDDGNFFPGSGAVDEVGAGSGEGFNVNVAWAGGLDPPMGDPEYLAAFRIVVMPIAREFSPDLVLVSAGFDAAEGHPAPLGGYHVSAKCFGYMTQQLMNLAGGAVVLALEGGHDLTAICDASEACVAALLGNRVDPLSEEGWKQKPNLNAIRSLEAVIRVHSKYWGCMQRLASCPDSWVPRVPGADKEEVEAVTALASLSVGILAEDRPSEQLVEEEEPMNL
Nature of the assay: Inhibition of human HDAC7.

Broadly, the IC50 is the concentration that inhibits the measured activity by half. Higher therefore signals lower potency.

SMILES strings stand for the structures.

Histone deacetylase 1, sequence (Q13547 whole entry): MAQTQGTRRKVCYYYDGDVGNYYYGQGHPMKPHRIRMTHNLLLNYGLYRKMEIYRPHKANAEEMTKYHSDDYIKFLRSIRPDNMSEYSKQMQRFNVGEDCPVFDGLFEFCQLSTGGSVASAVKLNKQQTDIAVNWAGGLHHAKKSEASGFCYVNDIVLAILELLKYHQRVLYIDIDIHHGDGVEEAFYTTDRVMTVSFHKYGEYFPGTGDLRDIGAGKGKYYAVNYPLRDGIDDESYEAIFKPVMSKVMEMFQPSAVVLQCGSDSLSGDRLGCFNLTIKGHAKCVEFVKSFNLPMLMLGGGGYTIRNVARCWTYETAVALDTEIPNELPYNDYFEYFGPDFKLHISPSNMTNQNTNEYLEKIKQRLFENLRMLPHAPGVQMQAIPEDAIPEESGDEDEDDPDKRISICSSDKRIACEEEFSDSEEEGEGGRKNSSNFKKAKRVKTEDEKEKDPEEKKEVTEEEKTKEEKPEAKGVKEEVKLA
Description for Histone deacetylase 4: Inhibition of human HDAC4

As to `O=C(/C=C/c1ccc(/C=N/OCc2c(F)c(F)c(F)c(F)c2F)cc1)NO`, the IC50 in [1] is 0.661 µM; with NCI-H460, 1.6 µM; on Histone deacetylase 8, 1.29 µM; with NB-4 it was 0.7 µM; against Histone deacetylase 1 it was 5.48 µM; with HCT-116, 2.4 µM. For the same compound, the 50% inhibitory concentration (IC50) on Histone deacetylase 3 worked out at 2.8 µM; on Histone deacetylase 5, 7.2 µM; against Histone deacetylase 11 it was 5.48 µM; against Histone deacetylase 9 it was 12 µM; against Histone deacetylase 4, 38.8 µM; on Histone deacetylase 2 it was 11 µM. In [2], this compound displayed a half-inhibitory concentration (IC50) of 7.36 µM.
Consider `O=C(/C=C/c1ccc(/C=N/OCCN2CCOCC2)cc1)NO`, for which the IC50 in assay [1] came out at 0.303 µM; with NCI-H460 it was 2.9 µM; at Histone deacetylase 8, 0.235 µM; in the assay on NB-4, 1.7 µM; on Histone deacetylase 1 it was 3.06 µM; in the assay on HCT-116 it was 1.8 µM. For the same compound, the 50% inhibitory concentration (IC50) against Histone deacetylase 3 came out at 4.08 µM; against Histone deacetylase 5, 7.36 µM; on Histone deacetylase 11, 3.06 µM; on Histone deacetylase 9, 13.1 µM; against Histone deacetylase 4 it was 16.1 µM; against Histone deacetylase 2, 27.7 µM. This compound also displayed an IC50 in assay [2] of 7.84 µM.
Turning to `O=C(/C=C/c1ccc(-c2cc(CN3CCOCC3)on2)cc1)NO`, the IC50 is 7 µM in the assay on NCI-H460; 0.127 µM against Histone deacetylase 8; 6.26 µM on Histone deacetylase 1; 4 µM in the assay on HCT-116; 3.14 µM against Histone deacetylase 3; 10.8 µM on Histone deacetylase 5. Further, the IC50 against Histone deacetylase 11 was 6.26 µM; on Histone deacetylase 9 it was 11.2 µM; at Histone deacetylase 7 it was 22.3 µM; in [2] it was 6.1 µM.
With `O=C(C#Cc1ccc(/C=N/OCc2ccc([N+](=O)[O-])cc2)cc1)NO`, the IC50 with NCI-H460, in the assay with NB-4 and in the assay on HCT-116 was greater than 20 µM each time.
With `C=CCO/N=C/c1ccc(/C=C/C(=O)NO)cc1`, the results for the IC50 with NCI-H460, in the assay with NB-4 and in the assay with HCT-116 were 3.2 µM, 1.4 µM and 3.5 µM, respectively.
Regarding `COC(=O)c1ccc(CO/N=C/c2ccc(/C=C/C(=O)NO)cc2)cc1`, the IC50 was 0.094 µM in [1]; 1.7 µM with NCI-H460; 0.603 µM against Histone deacetylase 8; 0.82 µM with NB-4; 1.82 µM against Histone deacetylase 1; 1.7 µM in the assay with HCT-116. The IC50 came to 0.659 µM against Histone deacetylase 3; 3.67 µM against Histone deacetylase 5; 10.8 µM on Histone deacetylase 11; 6.43 µM against Histone deacetylase 9; 12.9 µM against Histone deacetylase 4; 15.8 µM against Histone deacetylase 2. The compound further displayed an IC50 in assay [2] of 5.43 µM.
With `O=C(/C=C/c1ccc(/C=N/Oc2ccccc2)cc1)NO`, the IC50 in the assay with NCI-H460 was found to be 5.1 µM; with NB-4, 2.7 µM; in the assay on HCT-116, 3.7 µM.
On to `Nc1ccccc1NC(=O)/C=C/c1ccc(/C=N/OCCN2CCOCC2)cc1`, for which the IC50 with NCI-H460 was greater than 20 µM; in the assay with NB-4, 8.9 µM; in the assay with HCT-116 it was greater than 20 µM.
`Nc1ccccc1NC(=O)/C=C/c1ccc(/C=N/OCc2ccc([N+](=O)[O-])cc2)cc1`: the IC50 in the assay with NCI-H460, in the assay with NB-4 and in the assay with HCT-116 was greater than 20 µM throughout.
Take `O=C(/C=C/c1ccc(/C=N/OCc2ccccc2)cc1)NO`: the IC50 in the assay on NCI-H460 came to 1.6 µM; in the assay with NB-4, 0.62 µM; in the assay on HCT-116, 2.8 µM.
For `O=C(/C=C/c1cccc(/C=N/OCCN2CCOCC2)c1)NO` the same measures were 6.6 µM, 1.9 µM and 4 µM.
Consider `O=C(/C=C/c1ccc(/C=N/O)cc1)NO`, for which the IC50 in the assay with NCI-H460 turned out to be 6.3 µM; in the assay on NB-4 it was 2.9 µM; in the assay on HCT-116, 3.5 µM.
Take `O=C(CCc1ccc(/C=N/OCc2ccc([N+](=O)[O-])cc2)cc1)NO`: the figures for the IC50 with NCI-H460, in the assay with NB-4 and in the assay on HCT-116 were 7.7 µM, 0.95 µM and 3.1 µM, respectively.
As to `O=C(/C=C/c1ccc(C2=NOC(CN3CCOCC3)C2)cc1)NO` (stereo not drawn), the IC50 in the assay with NCI-H460 turned out to be 9.9 µM; in the assay on HCT-116 it was 3 µM.
